As usually defined, the IC50 is the concentration needed to halve the response being measured.

The target in the assay is Proto-oncogene tyrosine-protein kinase Src (Homo sapiens, UniProt P12931). As to the kind of experiment: Inhibitory activity against SH2 domain of human p60 c-Src tyrosine kinase using surface plasmon resonance (SPR) assay. A general note: Surface plasmon resonance follows binding to a sensor surface in real time, without labels.
Sequence of Proto-oncogene tyrosine-protein kinase Src (P12931 2-536 limits assumed): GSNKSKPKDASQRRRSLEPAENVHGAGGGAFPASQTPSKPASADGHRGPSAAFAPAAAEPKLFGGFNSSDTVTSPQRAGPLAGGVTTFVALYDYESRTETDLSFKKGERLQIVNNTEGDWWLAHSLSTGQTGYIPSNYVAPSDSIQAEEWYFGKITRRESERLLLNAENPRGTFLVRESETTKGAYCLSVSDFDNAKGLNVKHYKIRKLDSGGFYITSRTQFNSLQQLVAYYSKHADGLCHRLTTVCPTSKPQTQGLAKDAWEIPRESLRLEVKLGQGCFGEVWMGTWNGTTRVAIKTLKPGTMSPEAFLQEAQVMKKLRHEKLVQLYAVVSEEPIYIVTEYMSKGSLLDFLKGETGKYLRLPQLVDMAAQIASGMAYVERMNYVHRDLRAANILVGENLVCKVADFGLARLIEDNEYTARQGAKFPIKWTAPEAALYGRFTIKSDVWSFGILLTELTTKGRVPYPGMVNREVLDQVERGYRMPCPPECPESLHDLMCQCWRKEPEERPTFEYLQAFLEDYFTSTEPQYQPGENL
In the case of `O=[N+]([O-])c1cc2c(cc1C(O)P(=O)(O)O)OCO2` (stereo not drawn), the IC50 was determined as 0.3 mM.
As for `O=C(O)CC(O)(CC(=O)O)C(=O)O` [CITRIC ACID], the IC50 is more than 40 mM.
As for `O=P(O)(O)O` [PHOSPHORIC ACID], the figure is more than 40 mM.

For the origin of these results see ChEMBL document CHEMBL1145907, “Requirements for specific binding of low affinity inhibitor fragments to the SH2 domain of (pp60)Src are identical to those for high affinity binding of full length inhibitors” (J Med Chem, 2003).
